# Values joined by “and” are separate entries in the source; they are usually repeats but may differ in a detail not shown here. Equal values may be shown once.
# Tests used:
# [1] = test system: lung slices obtained from ovalbumin-sensitized guinea pigs; assay: Ovalbumin-induced airway constriction in lung slices from ovalbumin-sensitized guinea pigs; type: cell-based, guinea pig; conditions: Exp1-5
# Source text: All curve fits were generated using the software program GraphPad Prism. Data are represented as mean ± SEM of 4–5 guinea pigs (see Table 2 for statistical analyses).
# Outbred, male, specified pathogen-free Dunkin Hartley guinea pigs (Charles River Laboratory) weighing 200 to 400 g were used. The animals were housed in pairs under a 12-hour light/dark cycle in a temperature- and humidity-controlled room with food and tap water ad libitum. For studies in the guinea pig model of allergic asthma, animals were actively IgE-sensitized to ovalbumin by injecting a suspension containing 100 μg/mL ovalbumin and 100 mg/mL Al(OH)3 in saline. Each animal was injected with 1.0 mL of suspension: 0.5 mL was injected i.p. and 0.5 mL was divided over 7 s.c. sites close to lymph nodes in the neck, paws, and lumbar regions ([24]). Animals were euthanized at least 4 weeks after sensitization.
# Precision-cut lung slices were prepared as described previously ([61], [62]). A 3% solution of low melting-point agarose (Gerbu Biotechnik GmbH) in ultrapure water was prepared by heating it a microwave until fully dissolved. […] After filling, the lungs were covered with ice for 30 minutes to solidify the agarose for slicing. […] Lung slices were cut at a thickness of 500 μm and washed several times with slicing buffer to remove debris and washout the isoproterenol. Slices were incubated overnight in a 60 mm dish in sterile incubation buffer: MEM composed of lung slice buffer supplemented with 0.5 mM sodium pyruvate, 1 mM glutamine (Gibco), MEM-amino acids mixture (1:50), MEM-vitamins mixture (1:100; Gibco), and penicillin-streptomycin (1:100; Gibco), pH = 7.2, at 37°C in a CO2- and humidity-controlled atmosphere.
# After washing the slices in medium, individual guinea pig lung slices were mechanically maintained with a Teflon ring with an inner diameter of 7 mm and covered with 1 mL of incubation buffer. […] Image acquisition software (NIS-Elements, Nikon) was used to quantify airway luminal area. Images of the airways were acquired every 2 seconds during the whole course of the experiment, starting 2 minutes before the addition of any agent to allow for baseline measurements of the airway caliber. For each methacholine or ovalbumin concentration, the maximal airway constriction was expressed as percentage of the initial (baseline) airway luminal area and plotted against that concentration.
# [2] = test system: human lung slices; assay: Methacholine-induced airway constriction in human lung slices; type: cell-based; conditions: for MCh-induced airway constriction response (Figure 7): donor 1-4
# Source text: All curve fits were generated using the software program GraphPad Prism. Data are represented as mean ± SEM of 4 human donors (see Table 3 for statistical analyses).
# Precision-cut human lung slices were purchased from AnaBios and stored in a liquid nitrogen tank. Lung tissue was obtained postmortem and consent for research was obtained by AnaBios for all donors. Characteristics of the donors of the lung tissue are shown in Supplemental Table 2. Slices were rapidly thawed following instructions from AnaBios.
# After washing, individual human lung slices were mechanically maintained with a Teflon ring with an inner diameter of 7 mm and covered with 1 mL of incubation buffer. […] Image acquisition software (NIS-Elements, Nikon) was used to quantify airway luminal area. […] Airway constriction in response to each methacholine concentration was expressed as percentage of the initial airway luminal area.
structure (smiles),measurement,setting,value
"CC(Cc1ccc(O)cc1)NCC(O)c1cc(O)cc(O)c1 (stereo not drawn) [Fenoterol, fenoterol]",OVA-induced airway constriction response (Figure 6),"[1]; 0.1 µM Fenoterol, [OVA] 100000 ng/ml",0.0
same,OVA-induced airway constriction response (Figure 6),"[1]; 0.1 µM Fenoterol, [OVA] 1000000 ng/ml",0.0
same,OVA-induced airway constriction response (Figure 6),"[1]; 1 µM Fenoterol, [OVA] 0.001 ng/ml",103.2 and 100 and 98.0
same,OVA-induced airway constriction response (Figure 6),"[1]; 1 µM Fenoterol, [OVA] 0.01 ng/ml",103.0 and 100.0 and 95.8
same,OVA-induced airway constriction response (Figure 6),"[1]; 1 µM Fenoterol, [OVA] 0.1 ng/ml",97.3 and 96.9 and 98.7 and 100
same,OVA-induced airway constriction response (Figure 6),"[1]; 1 µM Fenoterol, [OVA] 1 ng/ml",103.2 and 98.4 and 95.2 and 100.1 and 99.5
same,OVA-induced airway constriction response (Figure 6),"[1]; 1 µM Fenoterol, [OVA] 10 ng/ml",101.0 and 98.4 and 92.9 and 100.7 and 99.7
same,OVA-induced airway constriction response (Figure 6),"[1]; 1 µM Fenoterol, [OVA] 100 ng/ml",98.8 and 99.1 and 98.3 and 105.5 and 98.7
same,OVA-induced airway constriction response (Figure 6),"[1]; 1 µM Fenoterol, [OVA] 1000 ng/ml",95.3 and 96.8 and 97.2 and 98.0
same,OVA-induced airway constriction response (Figure 6),"[1]; 1 µM Fenoterol, [OVA] 10000 ng/ml",91.4 and 95.6 and 97.2 and 105.0 and 93.6
same,OVA-induced airway constriction response (Figure 6),"[1]; 1 µM Fenoterol, [OVA] 100000 ng/ml",91.8 and 92.1 and 100.5 and 99.1 and 87.0
same,OVA-induced airway constriction response (Figure 6),"[1]; 1 µM Fenoterol, [OVA] 1000000 ng/ml",92.1 and 93.3 and 97.5 and 83.9
same,MCh-induced airway constriction response (Figure 7),"[2]; 1 µM Fenoterol, -Log [MCh] 3.5",66.3 and 38.1 and 61.4 and 57.2
same,MCh-induced airway constriction response (Figure 7),"[2]; 1 µM Fenoterol, -Log [MCh] 4",66.7 and 40.2 and 56.4 and 59
same,MCh-induced airway constriction response (Figure 7),"[2]; 1 µM Fenoterol, -Log [MCh] 4.5",64.6 and 41.7 and 58.9 and 57.8
same,MCh-induced airway constriction response (Figure 7),"[2]; 1 µM Fenoterol, -Log [MCh] 5",64.0 and 44.2 and 53.4 and 60.0
same,MCh-induced airway constriction response (Figure 7),"[2]; 1 µM Fenoterol, -Log [MCh] 5.5",70.0 and 50.2 and 57.7 and 59.1
same,MCh-induced airway constriction response (Figure 7),"[2]; 1 µM Fenoterol, -Log [MCh] 6",78.6 and 52.9 and 60.3 and 62.9
same,MCh-induced airway constriction response (Figure 7),"[2]; 1 µM Fenoterol, -Log [MCh] 6.5",78.2 and 58.1 and 66.2 and 68.4
same,MCh-induced airway constriction response (Figure 7),"[2]; 1 µM Fenoterol, -Log [MCh] 7",83.5 and 66.4 and 73.5 and 75.0
same,MCh-induced airway constriction response (Figure 7),"[2]; 1 µM Fenoterol, -Log [MCh] 7.5",90.1 and 68.0 and 78.3 and 79.7
same,MCh-induced airway constriction response (Figure 7),"[2]; 1 µM Fenoterol, -Log [MCh] 8",97.8 and 78.9 and 83.6 and 92.0
same,MCh-induced airway constriction response (Figure 7),"[2]; 1 µM Fenoterol, -Log [MCh] 8.5",89.0 and 94.8 and 96.5
same,MCh-induced airway constriction response (Figure 7),"[2]; 1 µM Fenoterol, -Log [MCh] 9",100.2 and 93.5 and 97.1 and 98.8
same,Airway luminal area at the highest methacholine concentration,[2]; 1 μM fenoterol,55.7% ± 6.2%
same,MCh-induced airway constriction response (Figure 7),"[2]; 10 µM Fenoterol, -Log [MCh] 3.5",79.8 and 72.5 and 79.3 and 86.4
same,MCh-induced airway constriction response (Figure 7),"[2]; 10 µM Fenoterol, -Log [MCh] 4",80.3 and 75.3 and 80 and 86.3
same,MCh-induced airway constriction response (Figure 7),"[2]; 10 µM Fenoterol, -Log [MCh] 4.5",83.8 and 75.6 and 80.1 and 86.9
same,MCh-induced airway constriction response (Figure 7),"[2]; 10 µM Fenoterol, -Log [MCh] 5",91.0 and 83.4 and 80.2 and 86.4
same,MCh-induced airway constriction response (Figure 7),"[2]; 10 µM Fenoterol, -Log [MCh] 5.5",98.1 and 86.0 and 82.0 and 87.9
same,MCh-induced airway constriction response (Figure 7),"[2]; 10 µM Fenoterol, -Log [MCh] 6",99.0 and 86.3 and 86.9 and 91.9
same,MCh-induced airway constriction response (Figure 7),"[2]; 10 µM Fenoterol, -Log [MCh] 6.5",99.5 and 90.2 and 90.4 and 97.1
same,MCh-induced airway constriction response (Figure 7),"[2]; 10 µM Fenoterol, -Log [MCh] 7",99.7 and 93.0 and 91.3 and 96.6
same,MCh-induced airway constriction response (Figure 7),"[2]; 10 µM Fenoterol, -Log [MCh] 7.5",94.8 and 96.0 and 99.4
same,MCh-induced airway constriction response (Figure 7),"[2]; 10 µM Fenoterol, -Log [MCh] 8",101.4 and 95.9 and 99.4 and 100.7
same,MCh-induced airway constriction response (Figure 7),"[2]; 10 µM Fenoterol, -Log [MCh] 8.5",103.2 and 98.6 and 100.6 and 95.6
same,MCh-induced airway constriction response (Figure 7),"[2]; 10 µM Fenoterol, -Log [MCh] 9",100.3 and 99.4 and 101.1 and 99.5
same,Airway luminal area at the highest methacholine concentration,[2]; 10 μM fenoterol,79.5% ± 2.8%
same,EC50,"[2]; Homo sapiens, read-out: MCh pD2, 10 μM Fenoterol (converted)",1700 nM

# From publication PMC10503797, “Allosteric modulator potentiates β2AR agonist–promoted bronchoprotection in asthma models” (The Journal of Clinical Investigation, 2023)
